Entries after “also recorded” stand apart in the source; their conditions may differ.
Tests used:
p-AKT = p-AKT activation (p-AKT/AKT ratio, western blot) in h676 GSCs; assay type: cell-based, human; settings: 24h at 1 µM
Experimental: In order to check whether the novel compounds act independently of this pathway, the present inventors treated the cells for 24h at 1 µM concentration and checked p-AKT activation.

h543 GSCs [1] = test: Sphere formation assay in h543 patient-derived GSCs; assay type: cell-based, human; settings: for sphere formation (dose-response): h543 GSCs, treated 7 days; for diameter of spheres / number of spheres: h543 patient-derived primary GSCs, compared to untreated controls
Experimental: (§1) Spheres were dissociated into single cells and seeded at a density of 50, 100, 200 and 400 cells/well in a 96 well plate. Neurosphere number was assessed after 7 days. Pictures were taken using Nikon Eclipse Ti-U microscope and neurosphere diameter was measured using NIS Elements BR software.

h676 GSCs [2] = test: Sphere formation assay in h676 patient-derived GSCs; assay type: cell-based, human; settings: for sphere formation (dose-response): h676 GSCs, treated 7 days; for diameter of spheres / number of spheres: h676 patient-derived primary GSCs, compared to untreated controls
Experimental: as §1

h676 GSCs [3] = test: Drug combination (synergy) sphere study in h676 GSCs; assay type: cell-based, human; settings: combinatorial matrix, spheres after 7 days, combination index
Experimental: Using this concentration as a reference point, the present inventors designed a combinatorial matrix using different concentrations of the compounds (e.g. 2x GI50, GI50 and ½ GI50) to study all the possible combinations. Combination index is calculated to establish if the combination is synergistic, additive or antagonistic (Fig. 50A).

U251 cells = test: Sphere formation assay in U251 cells cultured with NSC media; assay type: cell-based, human; settings: seven days, compared to DMSO
Experimental: as §1
Finally, the present inventors checked if the three chemical compounds had the ability to reduce stemness in these cells. They cultured U251 cells with NSC media in order to obtain a suspension culture enriched in stem cells. The inventors performed a sphere formation assay with these cells treated with ETP-47228, ETP-47037 and ETP-50946 or DMSO for seven days. […] Of note, all these effects recapitulated what the present inventors observed with Trf1 genetic downregulation (See 2.2).

h676 GSCs [4] = test: Subcutaneous xenograft of h676 patient-derived GSCs in nude mice; assay type: in vivo
Experimental: (§2) h676 and h543 patient-derived GSCs were dissociated using a 200 µl pipet and resuspended in NeuroCult medium and matrigel in a 1:1 ratio in a concentration of 1000 cell/µl. Nude mice (athymic Nude-Foxn1^nu/nu from Harlan) were injected subcutaneously with 100 µl of the cell preparation. ETP-47037 (or vehicle) was orally administrated at a concentration of 75 mg/kg 5 days per week (see also section 8), starting one week after cell injection. The vehicle consisted in 10% N-methyl-2-pyrrolidone (NMP, Sigma Aldrich) and 90% poly ethylene glycol (PEG, Sigma Aldrich). Mice were weighted and tumors were measured every 2-4 days. Tumor area was determined by the following equation: A = π * (a/2) * (b/2), were a and b are tumor length and width respectively.
(§3) For oral administration, ETP-47037 was dissolved in 10% N-methyl-2-pyrrolidone (NMP, Sigma Aldrich) and 90% polyethylene glycol (PEG, Sigma Aldrich) at a concentration of 75 mg/kg.
Next, the present inventors set to address whether TRF1 chemical inhibition was able to block tumor growth in vivo. […] Thus, the two independent primary GSCs (h676 and h543) were injected subcutaneously into nude mice. One week after GSC injection, mice received oral administration of the vehicle (NMP 10%, PEG 90%) as placebo or the ETP-47037 TRF1 inhibitor 5 days/week, every week until human endpoint, and tumors were continuously followed-up by caliper measurements (Fig. 42A).

h543 GSCs [5] = test: Subcutaneous xenograft of h543 patient-derived GSCs in nude mice; assay type: in vivo; settings: oral 75 mg/kg 5 days/week from one week after injection, caliper, vs vehicle
Experimental: as §2, §3
Next, the present inventors set to address whether TRF1 chemical inhibition was able to block tumor growth in vivo. […] Thus, the two independent primary GSCs (h676 and h543) were injected subcutaneously into nude mice. […]

[6] = Tolerability and pathology of xenograft mice after long-term treatment; assay type: in vivo, nude mice
Experimental: as §2, with “respectively. […] Table1. Mice pathologies after long-term treatment with vehicle or ETP-47037” for “respectively.”

[7] = Brain blood barrier crossing (statement)
[8] = test system: K-Ras^G12V-induced lung tumors; settings: Trf1 chemical inhibition; García-Beccaria et al. 2015; cited from earlier work
[9] = h676 xenograft, post-mortem, vs placebo

SMILES | dependence on p-AKT (p-AKT) | synergic effect with the PI3Ki (ETP-47037) (h676 GSCs [3]) | diameter of neurospheres (U251 cells) | number of neurospheres (U251 cells) | diameter of spheres (h543 GSCs [1]) | number of spheres (h543 GSCs [1]) | diameter of spheres (h676 GSCs [2]) | number of spheres (h676 GSCs [2]) | further results
COc1cc(Nc2ncc3c(n2)-c2ccc(Cl)cc2C(c2c(F)cccc2OC)=NC3)ccc1C(=O)O [Alisertib] | act independently of p-AKT | – | – | – | – | – | – | – | –
CC(=O)O[C@@]12CO[C@@H]1C[C@H](O)[C@@]1(C)C(=O)[C@H](O)C3=C(C)[C@@H](OC(=O)[C@H](O)[C@@H](NC(=O)OC(C)(C)C)c4ccccc4)C[C@@](O)([C@@H](OC(=O)c4ccccc4)[C@H]21)C3(C)C [Docetaxel, reference compound] | act independently of p-AKT | significant synergic effect | – | – | – | – | – | – | sphere formation (dose-response) (h543 GSCs [1]): most potent compounds; sphere formation (dose-response) (h676 GSCs [2]): most potent compounds
CS(=O)(=O)N1CCN(Cc2cc3c(N4CCOCC4)nc(-c4cnc(N)nc4)cn3n2)CC1 [ETP-47037] | – | – | strong reduction | strong reduction | significant drastic reduction | significant drastic reduction | significant drastic reduction | significant drastic reduction | proliferation marker Ki67 (h676 GSCs [4]; GSCs derived xenograft tumors, Ki67-positive cells per field, vs vehicle): reduces proliferation; γH2AX DNA damage marker (h676 GSCs [4]; GSCs derived xenograft tumors, γH2AX-positive cells per field, vs vehicle): induces DNA damage; decrease of TRF1 protein levels (h676 GSCs [4]; h676 xenograft tumors, immunofluorescence, vs placebo): 80%; tumor areas (h676 GSCs [4]; h676 xenograft, oral 75 mg/kg 5 days/week from one week after injection, caliper, vs vehicle): drastic reduction; tumor size (h676 GSCs [4]; [9]): striking decrease; tumor weight (h676 GSCs [4]; [9]): striking decrease; histological analysis of the tumors (h676 GSCs [4]; xenograft tumors after treatment): decreased cellularity in the tumors, together with necrotic areas, apoptotic bodies, compacted chromatin and fragmented DNA; tumor areas (h543 GSCs [5]): drastic reduction; Mice pathologies after long-term treatment ([6]; one cell per mouse (Mice 1 to 4)): Mice 1: dermatitis, mild widening of lymphatic vessels in intestine; also recorded: Mice 2: dermatitis; also recorded: Mice 3: dermatitis; also recorded: Mice 4: dermatitis; signs of sickness or morbidity ([6]; treated cohorts compared to the placebo group): did not detect any signs of sickness or morbidity; crossing the brain blood barrier [7]: not crossing the brain blood barrier; growth of already established lung adenocarcinomas [8]: effectively impair the growth; mouse and tissue viability [8]: without affecting mouse and tissue viability
Cc1cnc2c(N3CCOCC3)nc(-c3ccc(NC(=O)Nc4ccc(C(=O)N5CCN(C)CC5)cc4)cc3)cn12 [ETP-47228] | – | – | strong reduction | strong reduction | significant drastic reduction | significant drastic reduction | significant drastic reduction | significant drastic reduction | growth of already established lung adenocarcinomas [8]: effectively impair the growth; mouse and tissue viability [8]: without affecting mouse and tissue viability
NC(Cc1ccccc1)c1csc(Nc2ncccn2)n1 (centres unmarked) [ETP-50946] | – | – | strong reduction | strong reduction | significant drastic reduction | significant drastic reduction | significant drastic reduction | significant drastic reduction | –
CN1CC[C@H](c2c(O)cc(O)c3c(=O)cc(-c4ccccc4Cl)oc23)[C@H](O)C1 [Flavopiridol] | act independently of p-AKT | – | – | – | – | – | – | – | –
C[C@@H](Oc1cc(-n2cnc3ccc(CN4CCN(C)CC4)cc32)sc1C(N)=O)c1ccccc1C(F)(F)F [GSK461364] | p-AKT dependent | – | – | – | – | – | – | – | –
Nc1ccn([C@@H]2O[C@H](CO)[C@@H](O)C2(F)F)c(=O)n1 [Gemcitabine, reference compound] | act independently of p-AKT | significant synergic effect | – | – | – | – | – | – | sphere formation (dose-response) (h543 GSCs [1]): most potent compounds; sphere formation (dose-response) (h676 GSCs [2]): most potent compounds
COc1ccc(-c2ccc3c(N4CCOCC4)nc(N4C[C@@H](C)O[C@@H](C)C4)nc3n2)cc1CO [KU-0063794] | p-AKT dependent | – | – | – | – | – | – | – | –
O=C(Nc1ccc2[nH]nc(-c3ccncc3)c2c1)[C@@H]1CCN(CC(=O)N2CCN(c3ccc(-c4ncccn4)cc3)CC2)C1 [SCH772984] | act independently of p-AKT | significant synergic effect | – | – | – | – | – | – | –

Reference: patent publication EP3623009A1, “MODULATION OF TRF1 FOR BRAIN CANCER TREATMENT” (Fundación del Sector Público Estatal Centro Nacional de …, priority 2018, dated 2020)
